Results as given in PMC7029660, “Functional Division Between the RecA1 and RecA2 Proteins in Myxococcus xanthus” (Frontiers in Microbiology, 2020).

Target: T1, RecA1 (Myxococcus xanthus, UniProt Q1DCC5)
T1 construct: gene recA; full-length gene in pET15b, expressed in E. coli BL21(DE3), Ni-NTA purified
T1 sequence (Q1DCC5 1-342): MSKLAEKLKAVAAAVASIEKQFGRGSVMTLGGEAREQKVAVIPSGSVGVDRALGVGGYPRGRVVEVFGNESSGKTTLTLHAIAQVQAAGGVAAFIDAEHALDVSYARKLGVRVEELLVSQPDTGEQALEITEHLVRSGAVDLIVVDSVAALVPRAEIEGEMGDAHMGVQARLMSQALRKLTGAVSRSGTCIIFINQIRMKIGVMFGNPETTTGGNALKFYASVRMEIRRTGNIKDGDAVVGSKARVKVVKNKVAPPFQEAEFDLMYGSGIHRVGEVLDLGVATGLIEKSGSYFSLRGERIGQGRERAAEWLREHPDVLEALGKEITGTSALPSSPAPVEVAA
Test: ATPase assay, released inorganic phosphate (kit)
Assay type: biochemical
Conditions: 3 mM ATP, 5 mM MgCl2, 1 mM CaCl2, pH 7.4, 32 °C; with or without ssDNA or dsDNA

Nc1ncnc2c1ncn2[C@@H]1O[C@H](COP(=O)(O)OP(=O)(O)OP(=O)(O)O)[C@@H](O)[C@H]1O [ATP]
ATPase assay, released inorganic phosphate (kit): RecA1 and RecA2 both exhibited low ATPase activities
